For data set [1], the system named is TREU 667 strain of T. b. brucei. Description: Chronic CNS Model. The class given is in vivo, T. b. brucei in mice. As to the method: Mice were infected with 10,000 parasites of the TREU 667 strain of T. b. brucei. Twenty one days post-infection mice were treated with a dose of between 6 and 100 mg/kg of the compound, either BID or QD for 7 days intraperitoneally (IP) or orally (PO). Positive control mice were treated with Diminazene (10 mg/kg, IP) on Day 4 post-infection. Negative control mice were treated with Diminazene (10 mg/kg, PO) on Day 21. Since Diminazene is not able to penetrate the CNS, mice treated at Day 21 are not able to cure the infection. Starting 1 week after the end of treatment, mice are monitored for parasitemia and sacrificed if parasites are detected in the blood. Mice that survive 6 months are considered “cured.”

Data set [2] deals with bloodstream-form trypanosome T. brucei brucei 427 strain. Description: Trypanosoma brucei brucei high-throughput in vitro drug sensitivity assay (resazurin). To be noted: for Selectivity Index (L929 IC50 / T. b. brucei IC50): T. b. brucei vs L929; for IC50: Trypanosoma brucei. The class given is cell-based. (In general: The colour change of resazurin is a common sign of viable cells or microbes.)

A short description of data set [3]: Kinetic solubility by nephelometric (light scattering) method. To be noted: phosphate buffered saline, aqueous buffer, kinetic from dmso stock, PBS pH 7.4. The class given is physicochemical.
A short description of data set [4]: L929 cytotoxicity evaluation (resazurin). Conditions: mouse, L929 mouse fibroblast cells; 72 hrs incubation; read-out: Cytotox L-929 IC50. The class given is cell-based. In a few lines: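 Mouse L929 fibroblasts (1×10^4/mL seeding, attached overnight) were treated 72 h at 37 °C, 5% CO2 with serially diluted compounds in DMSO in D-MEM/10% FBS. Viability read by resazurin fluorescence after 3–4 h (ex 544/em 590 nm); IC50 from sigmoidal fits of single data points.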

In data set [5] the test system is Leishmania donovani strain 1S-CL2D axenic amastigotes. Description: Leishmania donovani axenic amastigote in vitro drug sensitivity assay (resazurin). Format: cell-based. To be noted: for Selectivity Index (Ld/L929): L. donovani vs L929; for IC50: Leishmania donovani, 72 hrs incubation. The procedure:
All experiments were conducted with the axenic amastigote-form of the following parasite: Leishmania donovani strain 1S-CL2D from Sudan, World Health Organization (WHO) designation: (MHOM/SD/62/1 S-CL2D). Parasites were cultured in T-25 vented cap flasks and kept in humidified incubators at 37° C. and 5% CO2. The axenic parasite culture media was RPMI-1640/MES/pH 5.5 formulated and prepared as described by Debrabant et. al. (International Journal for Parasitology 2004, Volume 34, page 205-217). To ensure log growth phase, axenic amastigotes were sub-cultured at appropriate dilutions every 2-3 days.
Cultures of axenic amastigotes growing in the log phase were passed through a 22 gauge blunt needle to break up the clumps, diluted 1:10 in RPMI-1640/MES medium and counted using hemocytometer to determine parasite concentration. Amastigotes were diluted to 2×10^5/mL in RPMI-1640/MES medium to generate a 2-fold working concentration for assay. Compounds to be tested were serially diluted in DMSO and 0.5 μL added to 50 μL HMI-9 in triplicate 96-well plates using a Biomek NX liquid handler. Parasites from the diluted stock were added to each well (50 μL) using a Multidrop 384 dispenser to give a final concentration of 1.0×10^5/ml parasites in 0.5% for DMSO. Amastigotes were incubated with compounds for 72 hrs at 37° C. with 5% CO2. Resazurin (10 μL of 12.5 mg/ml stock) from Sigma-Aldrich was added to each well and plates were incubated for an additional 2-3 hrs. Assay plates were read using an EnVision plate reader at an excitation wavelength of 544 nm and emission of 590 nm. Triplicate data points were averaged to generate sigmoidal dose response curve and determine IC50 values using XLfit curve fitting software from IDBS (Guildford, UK).

Data set [6] can be described thus: Pharmacokinetic studies in mice (plasma, brain). Format: in vivo. To be noted: for CL/F / half-life / Cmax / AUC(0-inf) / AUC(0-t): male, CD-1, mouse, 8 mg/kg, oral; for CL/F / half-life: mice (Table 3a); for CL/F: read-out: Oral Clearance Cl/F (converted); for half-life: read-out: t½ (converted); for Cmax / AUC(0-inf) / AUC(0-t): mice, normalized to 25 mg/kg (Table 3a); for AUC(0-inf): read-out: Exposure/trapezoid AUC0-inf; for AUC(0-t): read-out: Exposure/trapezoid AUC0-last; for Fold improvement 69 vs E14: AUC0-inf / Fold improvement 69 vs E14: AUC0-last / Fold improvement 69 vs E14: Cmax / Fold improvement 69 vs E14: Oral Clearance Cl/F / Fold improvement 69 vs E14: t½: mouse, in vivo, po. The procedure: Male CD-1 mice weighing approximately 25 g received the test article (E19 or 82 or E14 or 69) by either intravenous (IV), oral gavage (OG) or intra-peritoneal (IP) routes. Animals in IV group (6-10 animals, 1-2 per time point) received a single bolus injection of approximately 2 mg/kg of the test article. Animals receiving […], or as 4 repeat doses ([…], 1-2 per time point).
All doses were administered as clear colorless solutions in either: 50% (v/v) PEG400:20% (v/v) ethanol:30% (v/v) carboxymethylcellulose (0.5% w/v in sterile water for injection, WFI), or as in situ sodium salts in 5% (m/v) dextrose:2% (v/v) ethanol in DWI. All dose solutions were delivered at 4 mL/kg. Animals were fasted for at least 4 hours before dosing, and for 2 hours after dosing.
Blood samples and brain tissue were sampled from 1 or 2 animals/timepoint/group immediately before dosing and approximately 0.17, 0.5, 1, 2, 3, 4, 6, 8, 12, 18 and 24 hr after dosing for full pharmacokinetic and tissue analysis, or at 0.5, 2 and 4 hours post dosing to assess early-phase CNS disposition.
Bioanalysis for test article in whole blood, plasma or brain tissue was performed by HPLC with tandem mass spectrometry (LC-MSMS). Whole blood and plasma samples were treated with 3 volumes of either acetonitrile or methanol to precipitate plasma proteins. Treated samples were centrifuged and supernatants removed for analysis. Brain tissues were weighed and homogenized mechanically in the presence of 1 volume of phosphate-buffered saline (PBS). The resulting tissue suspensions were then diluted with a further volume of PBS, and then treated in the same manner as whole blood or plasma.
Extracted samples were assayed for test article by means of LC-MSMS employing reversed-phase chromatography coupled to a triple quadrupole mass spectrometer employing electrospray ionization in the positive ion mode. The analytical column was a Phenomenex Luna 3μ C8 50×2 mm, with an online sample purification step performed on a Phenomenex Synergi 4μ Polar RP 50×2 mm column.
Test articles were eluted using a binary mobile phase gradient comprising 5 mM Ammonium Acetate: 0.1% formic acid in either MeOH or H2O.
Non-compartmental analysis of plasma test article concentration versus time was performed in Microsoft Excel to generate pharmacokinetic parameters including: area under the curve (AUC), clearance (as Cl or Cl/F), volume of distribution (Vdss), half-life (t½), and bioavailability (F).

The mark [7] stands for this setting: 72 hrs incubation, read-out: T. b. brucei IC50.
Setting [8] is: 72 hrs incubation, read-out: T.b. brucei IC50.
Setting [9] is: read-out: L. donovani axenic amastigotes IC50.
Where [10] appears, read: read-out: L. donovani axenic amastigotes IC50 (ug/mL).

Values after ≈ are worked out from the molar mass of the structure shown. Where two headings read alike, the source gives them in different places.

On to `CC1(C)OB(O)c2cc(NC(=O)c3ccc(F)cc3C(F)(F)F)ccc21`, for which the “mice with absence of blood parasites through Day 84” value in data set [1] (75 mg/kg BID for 7 days, starting at Day 21 post-infection) was 100%.
Consider `N=C(N)c1ccc(/N=N/Nc2ccc(C(=N)N)cc2)cc1` [Diminazene, diminazene, reference compound], for which the “Day by which all animals relapsed to exhibit blood parasitemia” value in data set [1] (treated on Day 21 (10 mg/kg)) was at most 49 days.
As usually defined, the solubility is the concentration that dissolves in the medium under given conditions. High values mean a readily soluble substance, low ones a poorly soluble substance. For the compound `CC1OB(O)c2cc(NC(=O)c3ccc(F)cc3C(F)(F)F)ccc21` (stereo not shown) [compound 1], in data set [2], the “Selectivity Index (L929 IC50 / T. b. brucei IC50)” value is listed as 13. The IC50 in data set [2] (setting [7]) was found to be 258 nM; in data set [2] (setting [8]), 0.091 µg/mL; in data set [5] (setting [9]), 524 nM; in data set [5] (setting [10]), 0.185 µg/mL. This compound also yielded a solubility at 90 min in data set [3] of 50 µM (≈ 17.7 µg/mL). The IC50 at 72 h in data set [4] worked out at 1.21 µg/mL (≈ 3.43 µM). The “Selectivity Index (Ld/L929)” value in data set [5] was 7.
`CC1OB(O)c2cc(NC(=O)c3ccccc3C(F)(F)F)ccc21` (stereo not shown) [compound 2, N-(1-Hydroxy-3-methyl-1,3-dihydro-benzo[c][1,2]oxaborol-6-yl)-2-trifluoromethyl-benzamide]: the “Selectivity Index (L929 IC50 / T. b. brucei IC50)” value in data set [2] amounted to 7. In addition, the IC50 turned out to be 233 nM in data set [2] (setting [7]), 0.078 µg/mL in data set [2] (setting [8]), 830 nM in data set [5] (setting [9]) and 0.278 µg/mL in data set [5] (setting [10]). The amount in solution in data set [3] (solubility at 90 min) came to 3 µM (≈ 1.01 µg/mL). Further, in data set [4], the IC50 at 72 h was 0.53 µg/mL (≈ 1.58 µM). Also, the “Selectivity Index (Ld/L929)” value in data set [5] is on record as 2.
Turning to `CC1OB(O)c2cc(NC(=O)c3ccc(F)cc3)ccc21` (stereo not shown) [compound 3, 4-Fluoro-N-(1-hydroxy-3-methyl-1,3-dihydro-benzo[c][1,2]oxaborol-6-yl)-benzamide], the “Selectivity Index (L929 IC50 / T. b. brucei IC50)” value in data set [2] is recorded as over 200. In addition, the IC50 in data set [2] (setting [7]) came out at 175 nM; in data set [2] (setting [8]), 0.05 µg/mL; in data set [5] (setting [9]) it was 344 nM; in data set [5] (setting [10]), 0.098 µg/mL. Moreover, in data set [3], the concentration in solution (solubility at 90 min) came to 100 µM (≈ 28.5 µg/mL). The IC50 at 72 h in data set [4] is over 10 µg/mL. For the same compound, the “Selectivity Index (Ld/L929)” value in data set [5] is reported as over 10.
Take `CC1OB(O)c2cc(NC(=O)c3ccccc3Cl)ccc21` (stereo not shown) [compound 4, 2-Chloro-N-(1-hydroxy-3-methyl-1,3-dihydro-benzo[c][1,2]oxaborol-6-yl)-benzamide]: in data set [2], the “Selectivity Index (L929 IC50 / T. b. brucei IC50)” value turned out to be 52. Further, the IC50 in data set [2] (setting [7]) was 80 nM; in data set [2] (setting [8]), 0.024 µg/mL; in data set [5] (setting [9]), 458 nM; in data set [5] (setting [10]) it was 0.138 µg/mL. The same compound had a solubility at 90 min in data set [3] of over 200 µM. Also, in data set [4], the IC50 at 72 h was 1.24 µg/mL (≈ 4.11 µM). The “Selectivity Index (Ld/L929)” value in data set [5] is 9.
As for `COc1ccc(C(=O)Nc2ccc3c(c2)B(O)OC3C)cc1` (stereo not shown) [compound 5, N-(1-Hydroxy-3-methyl-1,3-dihydro-benzo[c][1,2]oxaborol-6-yl)-4-methoxy-benzamide], the “Selectivity Index (L929 IC50 / T. b. brucei IC50)” value in data set [2] is reported as over 185. Also, the IC50 in data set [2] (setting [7]) was found to be 182 nM; in data set [2] (setting [8]), 0.054 µg/mL; in data set [5] (setting [9]), 360 nM; in data set [5] (setting [10]), 0.107 µg/mL. In data set [3], this compound came in with a solubility at 90 min of 100 µM (≈ 29.7 µg/mL). In addition, the IC50 at 72 h in data set [4] is over 10 µg/mL. Further, the “Selectivity Index (Ld/L929)” value in data set [5] was over 93.
What is called Cmax is the highest concentration seen after dosing. Regarding `CC1(C)OB(O)c2cc(NC(=O)c3ccc(F)cc3Cl)ccc21` [compound 69, 2-Chloro-4-fluoro-N-(1-hydroxy-3,3-dimethyl-1,3-dihydro-benzo[c][1,2]oxaborol-6-yl)-benzamide], the “Selectivity Index (L929 IC50 / T. b. brucei IC50)” value in data set [2] is listed as over 35. Besides, the IC50 in data set [2] (72 h, read-out: T. b. brucei IC50 (nM)) amounted to 845 nM. For the same compound, the IC50 in data set [2] (72 h, read-out: T.b. brucei IC50 (ug/mL)) turned out to be 0.282 µg/mL. This compound had a solubility at 90 min in data set [3] of 100 µM (≈ 33.4 µg/mL). In addition, the IC50 at 72 h in data set [4] is over 10 µg/mL. In data set [6] (brain), the CL/F is 20 mL/min/kg, the half-life was 1.4 h, the Cmax was determined as 3250 ng/mL and the AUC(0-inf) stood at 21300 ng·h/mL. Further, in data set [6] (brain), the AUC(0-t) came to 20800 ng·h/mL. In addition, in data set [6] (plasma), the CL/F was 7.32 mL/min/kg, the half-life was 3.7 h, the Cmax stood at 7670 ng/mL and the AUC(0-inf) amounted to 58000 ng·h/mL. In addition, the AUC(0-t) in data set [6] (plasma) came to 56900 ng·h/mL. In data set [6] (in brain), the “Fold improvement 69 vs E14: AUC0-inf” value turned out to be 6.8 fold, the “Fold improvement 69 vs E14: AUC0-last” value is listed as 6.7 fold, the “Fold improvement 69 vs E14: Cmax” value is on record as 1.3 fold and the “Fold improvement 69 vs E14: Oral Clearance Cl/F” value was 6.7 fold. Moreover, the “Fold improvement 69 vs E14: t½” value in data set [6] (in brain) is on record as 0.9 fold. In data set [6] (in plasma), the “Fold improvement 69 vs E14: AUC0-inf” value is listed as 3.8 fold, the “Fold improvement 69 vs E14: AUC0-last” value worked out at 4.0 fold, the “Fold improvement 69 vs E14: Cmax” value came to 2.1 fold and the “Fold improvement 69 vs E14: Oral Clearance Cl/F” value came out at 3.9 fold. For the same compound, the “Fold improvement 69 vs E14: t½” value in data set [6] (in plasma) was 1.2 fold.

For the origin of these results see patent publication US20110190235A1, “BORON-CONTAINING SMALL MOLECULES AS ANTIPROTOZOAL AGENTS” (Anacor Pharmaceuticals, Inc., priority 2009, published 2011).
